Laboratory results published in patent publication US10954200B1, “Anti-angiogenesis compound” (KING SAUD UNIVERSITY, priority 2019, dated 2021).

Legend:
MCF-7 cells [1] = experiment: MTT cell viability assay, MCF-7; assay type: cell-based; conditions: Homo sapiens, MCF7; MCF-7, 48 h; read-out: IC50 value (μM) against MCF-7 cells, MTT assay
Method: (§1) Breast cancer cells (MCF-7), lung cancer cells (A549), Hela cells, and peripheral blood mononuclear cells (PBMC) were purchased from the National Center for Cell Sciences (NCCS), Pune, India. The cancer cells were maintained in Dulbecco's modified eagles medium (DMEM), supplemented with 2 mM 1-glutamine and balanced salt solution (BSS), adjusted to contain 1.5 g/L Na2CO3, 0.1 mM nonessential amino acids, 1 mM sodium pyruvate, 2 mM 1-glutamine, 1.5 g/L glucose, 10 mM (4-(2-hydroxyethyl)-1-piperazineethane sulfonic acid) (HEPES), and 10% fetal bovine serum (GIBCO, USA). Penicillin and streptomycin (100 IU/100 μg) were adjusted to 1 mL/L. The cells were maintained at 37° C. with 5% CO2 in a humidified CO2 incubator.
(§2) The inhibitory concentration (IC50) value was evaluated using an MTT [3-(4,5-dimethylthiazol-2-yl)-2,5-diphenyltetrazolium bromide] assay. Cancer cells were grown (1×10^4 cells/well) in a 96-well plate for 48 h to 75% confluence. The medium was replaced with fresh medium containing serially diluted synthesized compounds, and the cells were further incubated for 48 h. The culture medium was removed, and 100 μL of the MTT [3-(4,5-dimethylthiozol-2-yl)-3,5-diphenyl tetrazolium bromide] (Hi-Media, Mumbai, India) solution was added to each well and incubated at 37° C. for 4 h. […] The optical density was measured at 620 nm in an ELISA multiwell plate reader (Thermo Multiskan EX, USA). […]

EAC cells [2] = experiment: Trypan blue dye exclusion assay, EAC; assay type: cell-based, mouse; conditions: 48 h, read-out: IC50 value (μM) against EAC cells, Trypan blue assay
Method: (§3) The cytotoxic effects of synthesized compounds on various types of cancer cells were determined by trypan blue dye exclusion assay. The cultured cells were treated with the synthesized compounds and incubated for 48 h. After the incubation period, the cells were detached by 0.5% trypan-EDTA solution, harvested by centrifugation at 3000 rpm for 5 minutes and diluted in 1 ml of PBS. Then, 10 μl of trypan blue dye solution was added to each sample and cells were re-suspended. About 20 μl of cell suspensions were carefully and continuously filled in the haemocytometer chamber and viable cells were counted in 1×1 mm squares, four chambers and the average number of cells per square determined. Total viable cells were determined using the following formula,
The values were plotted in MS excel version 8.1, graphed and the inhibitory concentration-50 (IC50) values were estimated.

MCF-7 cells [3] = experiment: Colony formation assay; assay type: cell-based, human; conditions: 5, 10, 20 μM, 6 hours pretreatment, 12 days
Method: Long-term effects of the active compound were determined by colony formation with minor modifications. […] Surviving colonies were fixed and stained by using 0.5% crystal violet. Visible colonies were observed and colonies were counted and photographed.

EAC cells [4] = experiment: MTT cell viability assay, EAC; assay type: cell-based, mouse; conditions: 48 h, read-out: IC50 value (μM) against EAC cells, MTT assay
Method: (§4) The inhibitory concentration (IC50) value was evaluated using an MTT [3-(4,5-dimethylthiazol-2-yl)-2,5-diphenyltetrazolium bromide] assay. Cancer cells were grown (1×10^4 cells/well) in a 96-well plate for 48 h to 75% confluence. The medium was replaced with fresh medium containing serially diluted synthesized compounds, and the cells were further incubated for 48 h. The culture medium was removed, and 100 μL of the MTT [3-(4,5-dimethylthiozol-2-yl)-3,5-diphenyl tetrazolium bromide] (Hi-Media, Mumbai, India) solution was added to each well and incubated at 37° C. for 4 h. After removal of the supernatant, 50 μL of DMSO was added to each of the wells and incubated for 10 min to solubilize the formazan crystals. The optical density was measured at 620 nm in an ELISA multiwell plate reader (Thermo Multiskan EX, USA). The OD value was used to calculate the percentage of viability using the following formula.

A549 cells [5] = experiment: MTT cell viability assay, A549; assay type: cell-based; conditions: Homo sapiens, A549, 48 h; read-out: IC50 value (μM) against A549 cells, MTT assay
Method: as §1, §2

EAC tumor = experiment: In vivo EAC ascites tumor growth; conditions: for decrease of tumor volume, % of inhibition: three doses on alternate days
Method: The EAC tumor was obtained from Mahajana Education Center, BOC, in Biotechnology. Microbiology& Biochemistry Mahajana College, Mysore University, Mysore, Karnataka, India, and the same was induced into adult Swiss albino mice i.p and left for the growth.
The EAC tumor bearing mice (donor) were taken on the 12th day after tumor transplantation and the ascites fluid was drawn using an 18 gauge needle into a sterile syringe. Then the tumor cell viability was tested by trypan blue exclusion assay and the cells were counted using a haemocytometer. The ascites fluid was suitably diluted to get a concentration of 5×10^6/0.2 ml of tumor cell suspension. This was injected into the i.p cavity of Swiss mice to obtain ascites tumor and the process was repeated every 12 days.
Ascites tumor was obtained by injecting 5×10^6 viable tumor cells into i.p cavity of Swiss mice. Tumor growth was followed by recording the animal weights. These cells grew in the peritoneum of mice, forming an ascites tumor with enormous abdominal swelling and showing a profound increase in body weight. The EAC cells began their exponential growth phase from the 7th day after tumor cell injection and the animals succumbed to the ascites tumor burden between 16 to 20 days after injection of tumor cells.
(§5) The effect of potent synthesized compound BAMC on the modulation of neovessel and tumor growth was verified in EAC bearing animals. The EAC tumor bearing mice were grouped separately at two different concentrations (25 and 50 mg/Kg, b.w/i.p) of potent synthesized compounds and individually the groups were treated using a 26 gauge needle. Then, after the onset of tumor on the 4th day, three doses were given on every alternative day. The growth of the tumor was monitored by taking the body weight of the animals every day. Then, control animals were injected with 0.2 ml of saline (i.p) on every alternative day. In each treatment, at least six mice were taken and each experiment was repeated thrice. After the completion of treatment, the animals from each group were sacrificed on the 10th day and the EAC cells along with ascites fluid were harvested and the quantity was recorded. The peritoneum of the mice was cut open and the inner lining of the peritoneal cavity was examined for angiogenesis (vasculature) in compound-treated, tumor bearing mice. Finally, the inner lining of normal mice was also examined for vasculature and photographed using Sony steady shot DSC-W610 camera. These sets of animals were used to study the survivability analysis after treatment until their death.

[6] = test system: genomic DNA of cancer cells; experiment: DNA fragmentation assay (apoptotic ladder); assay type: cell-based; conditions: treated vs untreated cells
Method: DNA damaging studies were carried out according to previously described methods. The DNA damaging activity of the compound on genomic DNA of both control and treated cells were evaluated by Phenol:Chloroform method. Briefly, the cells were first lysed using lysis buffer (50 mM Tris-Hcl, 0.5% SDS, pH 8.0) and incubated for 30 minutes at […]. The cell lysate was precipitated by using potassium acetate (8M) and incubated at 4° C. for 1 hr. The supernatant was mixed with phenol:Chloroform:isoamylalcohol at 25:24:1 ratio. This step was repeated thrice. DNA was precipitated by adding ice cold alcohol and precipitated DNA was air dried and dissolved by using appropriate amounts of TE Buffer (pH 8.0). Precipitated DNA was subjected to RNase digestion (2 μg/mL) for 1 hr at 37° C. The obtained DNA was quantified by using nanodrop (Eppendrof Ag 22331 Hamburg 6135EM402331) and equal amounts of (50 μg) of DNA were loaded to 1% agarose gel, observed under uv-trans illuminator, and documented.

cancer cells = experiment: MTT and trypan blue assays, overall IC50; assay type: cell-based; conditions: read-out: anti-angiogenesis effect, IC50 values
Method: as §4
The cytotoxic effects of synthesized compounds on various types of cancer cells were determined by trypan blue dye exclusion assay. […] About 20 μl of cell suspensions were carefully and continuously filled in the haemocytometer chamber and viable cells were counted in 1×1 mm squares, four chambers and the average number of cells per square determined. Total viable cells were determined using the following formula, […]

NIH-3T3 cells = experiment: Toxicity to NIH-3T3 cells; assay type: cell-based
[7] = test system: EAC induced angiogenesis in peritoneum; experiment: Peritoneal angiogenesis assay; assay type: in vivo, Swiss albino mice
Method: as §5

Hela cells [8] = experiment: MTT cell viability assay, Hela; assay type: cell-based; conditions: Homo sapiens, 48 h, read-out: IC50 value (μM) against Hela cells, MTT assay
Method: as §1, §2

A549 cells [9] = experiment: Trypan blue dye exclusion assay, A549; assay type: cell-based; conditions: Homo sapiens, A549, 48 h; read-out: IC50 value (μM) against A549 cells, Trypan blue assay
Method: as §1
as §3, with “Then, 10 μl of trypan blue dye solution was added to each sample and cells were re-suspended.” left out, “formula, […]” for “formula,”

PBMC cells [10] = experiment: MTT cell viability assay, PBMC; assay type: cell-based, human; conditions: 48 h, read-out: IC50 value (μM) against PBMC cells, MTT assay
Method: as §1, §2

A549 cells [11] = experiment: Cancer cell migration (scratch wound) assay; assay type: cell-based; conditions: Homo sapiens, 48 h
Method: The A549 cells were cultured in a six well plate until they reached a confluence of 60-70%. A scratch was made to form a wound using a micropipette tip and the monolayer was washed with growth medium. Then, 2 ml medium containing different concentrations of test drugs was added to the respective wells, incubated for 48 h, fixed with chilled 70% ethanol and stained with crystal violet (0.4 g/l). Images were taken from random fields at regular time intervals using an inverted microscope (Bresser, Biolux). Finally, the percentage of cell migration was calculated by comparing the final gap width to initial gap width.

PBMC cells [12] = experiment: Trypan blue dye exclusion assay, PBMC; assay type: cell-based, human; conditions: 48 h, read-out: IC50 value (μM) against PBMC cells, Trypan blue assay
Method: as §1
as §3, with “Then, 10 μl of trypan blue dye solution was added to each sample and cells were re-suspended.” left out, “formula, […]” for “formula,”

MCF-7 cells [13] = experiment: Trypan blue dye exclusion assay, MCF-7; assay type: cell-based; conditions: Homo sapiens, MCF7; MCF-7, 48 h; read-out: IC50 value (μM) against MCF-7 cells, Trypan blue assay
Method: as §1
as §3, with “Then, 10 μl of trypan blue dye solution was added to each sample and cells were re-suspended.” left out, “formula, […]” for “formula,”

Hela cells [14] = experiment: Trypan blue dye exclusion assay, Hela; assay type: cell-based; conditions: Homo sapiens, 48 h, read-out: IC50 value (μM) against Hela cells, Trypan blue assay
Method: as §1
as §3, with “Then, 10 μl of trypan blue dye solution was added to each sample and cells were re-suspended.” left out, “formula, […]” for “formula,”

caspase-3 = experiment: Caspase-3 colorimetric assay; assay type: cell-based, human
Method: Using CPP32/Caspase-3 Colorimetric Assay Kit, the activated caspase was estimated as per manufacturer's protocol. The buffers used in the experiment were those supplied along with the kit. A549 cells (8×10^5 per 12.5 cm^2 culture flasks) were seeded with their respective growth medium and incubated for 24 h at 37° C. with/without 5% CO2. Then, confluent cells were added with the respective drug medium while maintaining an untreated group as a control. Cultures were incubated for 6 h, maintaining the same conditions, 0.1 mM Hydrogen Peroxide (H2O2) and 10 μM standard drug were used as positive control for activation of caspase-3. After treatment incubation, the detached cells in the supernatant were collected, and the adherent cells were trypsinized to add into the respective tubes. Subsequently, tubes were centrifuged at 1500 rpm for 10 min to acquire a cell pellet. […] The […] was transferred to fresh tubes and the protein concentrations of samples were determined by employing Bradford assay. […] Post-incubation, the plate was read at 405 nm in a Dynex Opsys MRTM Microplate Reader (Dynex Technologies, VA, USA). Percentage caspase-3 activation was calculated using the following formula: % Caspase-3 activation=[(At−Ac)/Ac]×100
“At” represents the mean absorbance of test wells and “Ac” represents the mean absorbance of the control wells.

Compound: Cc1ccccc1OCC(=O)NNC(=O)C1CN(Cc2ccccc2)CCO1 (centres unmarked) [BAMC, 4-Benzyl-N′-(2-(o-tolyloxy)acetyl) morpholine-2-carbohydrazide]
- IC50 (MCF-7 cells [1]): 4.5 ± 2 µM
- IC50 (EAC cells [2]; Mus musculus): 6.8 ± 1.4 µM
- colony formation (colonogenic efficiency) (MCF-7 cells [3]): visibly diminished the colonogenic efficiency of MCF-7 cells
- IC50 (EAC cells [4]; Mus musculus): 6.7 ± 1.8 µM
- IC50 (A549 cells [5]): 5.6 ± 1 µM
- decrease of tumor volume, % of inhibition (EAC tumor; EAC mice, 25 mg/kg bw i.p.): 74.35%
- decrease of tumor volume, % of inhibition (EAC tumor; EAC mice, 50 mg/kg bw i.p.): 80.2%
- adverse effect on normal lymphoid organs (morphology of kidney, liver, spleen) (EAC tumor; EAC mice, 25 and 50 mg/kg): did not show any symptoms of adverse effect
- cell density reduction (EAC tumor; EAC mice, 25 and 50 mg/kg, concentration dependent): six fold reduction
- body weight of tumor bearing mice (EAC tumor; EAT bearing mice, treated vs control): significant decrease in body weight
- DNA fragmentation (apoptotic ladder), agarose gel [6]: typical “ladder (A)” formation of DNA
- IC50 (cancer cells): ~5.5 µM
- toxicity to NIH-3T3 cells (NIH-3T3 cells): ~97 µM
- regression of EAC induced angiogenesis in peritoneum ([7]; first value of 'respectively' (25 mg/kg)): 40%
- regression of EAC induced angiogenesis in peritoneum ([7]; second value of 'respectively' (50 mg/kg)): 15%
- IC50 (Hela cells [8]): 4.9 ± 0.2 µM
- IC50 (A549 cells [9]): 5.8 ± 0.7 µM
- IC50 (PBMC cells [10]; Homo sapiens): 89.9 ± 3.5 µM
- inhibition at 10 µM (A549 cells [11]; A549, 10 μM): 13%
- inhibition at 20 µM (A549 cells [11]; A549, 20 μM): 72.3%
- IC50 (PBMC cells [12]; Homo sapiens): 85.7 ± 0.7 µM
- IC50 (MCF-7 cells [13]): 4.6 ± 1.1 µM
- IC50 (Hela cells [14]): 5.2 ± 1.3 µM
- percentage of caspase-3 activation (caspase-3; MCF-7, BAMC concentration not stated): 84.5%

Compound: OO [H2O2, Hydrogen Peroxide, reference compound]
- percentage of caspase-3 activation (caspase-3; MCF-7, 0.1 mM, positive control): 91.1%

Compound: N.N.[Cl][Pt][Cl] [Cisplatin, reference compound]
- IC50 (EAC cells [2]): 4.4 ± 1.3 µM
- IC50 (EAC cells [4]): 4.9 ± 1.1 µM
- IC50 (PBMC cells [10]): 91.4 ± 1.1 µM
- IC50 (PBMC cells [12]): 96.1 ± 0.8 µM
